# Read-outs that look alike come from different tables or passages of the source.
# How the values were obtained:
# [1] = test system: Plasmodium falciparum 3D7-A10 parasites; experiment: Stage specificity assay (8-h exposure of synchronized stages, IC50^8h); format: cell-based; details: Plasmodium falciparum
# [2] = test system: asynchronous 3D7-A10 parasite cultures; experiment: Standard 72-h exposure asexual blood stage susceptibility assay (IC50^72h); format: cell-based, Plasmodium falciparum; details: Plasmodium falciparum, 3D7, 72 h, read-out: Overall (72hr assay) Mean IC50 (IC50^72h)
# [3] = test system: 3D7-MR4 trophozoite parasite-infected RBCs; experiment: Metabolomic profiling (hydrophilic metabolite changes, UHPLC-MS); format: cell-based, Plasmodium falciparum
smiles,measurement,setting,value
O=C(Nc1ccc(N2CCNCC2)cc1)c1ccn2ncc(-c3cccc(Cl)c3)c2n1.O=C(O)C(F)(F)F [MMV022478],IC50,"[1]; 3D7, 8 h, read-out: IC50^8h values at all tested stages, 8-h exposures, all asexual blood stages",> 1000 nM
same,IC50,"[1]; 3D7, read-out: Early rings Mean IC50 (IC50^8h), 8-h exposure 0–8 hr, 3D7-A10, survival at 60 h",7630 nM
same,IC50,"[1]; 3D7, read-out: Early trophozoites Mean IC50 (IC50^8h), 8-h exposure 16–24 hr, 3D7-A10, survival at 60 h",2130 nM
same,IC50,"[1]; 3D7, read-out: Late rings Mean IC50 (IC50^8h), 8-h exposure 8–16 hr, 3D7-A10, survival at 60 h",4870 nM
same,IC50,"[1]; 3D7, read-out: Late trophozoites Mean IC50 (IC50^8h), 8-h exposure 24–32 hr, 3D7-A10, survival at 60 h",2530 nM
same,IC50,"[1]; 3D7, read-out: Schizonts Mean IC50 (IC50^8h), 8-h exposure 32–40 hr, 3D7-A10, survival at 60 h",3370 nM
same,IC50,[2],11.1 nM
same,peptide levels (hemoglobin catabolism signature),"[3]; 10 × IC50^72h, 2.5 hr, trophozoites",decreased peptide levels
same,Log2(fold changes) 3-phosphoglycerate,"[3]; metabolite 3-phosphoglycerate, log2 fold change",-0.2221
same,Log2(fold changes) 4-Pyridoxic acid,"[3]; metabolite 4-Pyridoxic acid, log2 fold change",0.0000
same,Log2(fold changes) 4-aminobutyrate,"[3]; metabolite 4-aminobutyrate, log2 fold change",-1.1535
same,Log2(fold changes) 4-phosphopantetheine,"[3]; metabolite 4-phosphopantetheine, log2 fold change",0.0000
same,Log2(fold changes) 4-phosphopantothenate,"[3]; metabolite 4-phosphopantothenate, log2 fold change",-2.5840
same,Log2(fold changes) 5-aminopentanoic acid,"[3]; metabolite 5-aminopentanoic acid, log2 fold change",0.0000
same,Log2(fold changes) 5-methyl-THF,"[3]; metabolite 5-methyl-THF, log2 fold change",0.0000
same,Log2(fold changes) 5-phosphoribosyl-1-pyrophosphate,"[3]; metabolite 5-phosphoribosyl-1-pyrophosphate, log2 fold change",-3.8277
same,Log2(fold changes) 6-phospho-D-gluconate,"[3]; metabolite 6-phospho-D-gluconate, log2 fold change",-1.2363
same,Log2(fold change) HVDD,[3]; metabolite HVDD,-6.0354
same,Log2(fold change) Hydroxyisocaproic acid,[3]; metabolite Hydroxyisocaproic acid,0.0000
same,Log2(fold change) IDP,[3]; metabolite IDP,0.0000
same,Log2(fold change) IMP,[3]; metabolite IMP,-1.9723
same,Log2(fold change) Inositol,[3]; metabolite Inositol,0.0000
same,Log2(fold change) Isopentyl-PP,[3]; metabolite Isopentyl-PP,0.0000
same,Log2(fold change) L-arginino-succinate,[3]; metabolite L-arginino-succinate,0.0000
same,Log2(fold change) LD,[3]; metabolite LD,0.0000
same,Log2(fold change) Myristoyl/tetradecanoyl-CoA,[3]; metabolite Myristoyl/tetradecanoyl-CoA,0.0000
same,Log2(fold change) N-Acetyl-L-alanine,[3]; metabolite N-Acetyl-L-alanine,-4.1046
same,Log2(fold change) N-acetyl-L-ornithine,[3]; metabolite N-acetyl-L-ornithine,-4.9077
same,Log2(fold change) N-acetyl-glucosamine-1/6-phosphate,[3]; metabolite N-acetyl-glucosamine-1/6-phosphate,-2.7078
same,Log2(fold change) N-acetyl-glutamate,[3]; metabolite N-acetyl-glutamate,-2.2943
same,Log2(fold change) N-acetyl-glutamine,[3]; metabolite N-acetyl-glutamine,0.0000
same,Log2(fold change) N-carbamoyl-L-aspartate,[3]; metabolite N-carbamoyl-L-aspartate,-4.4049
same,Log2(fold change) NAD+,[3]; metabolite NAD+,0.0000
same,Log2(fold change) NADH,[3]; metabolite NADH,0.4682
same,Log2(fold change) NADP+,[3]; metabolite NADP+,-1.0797
same,Log2(fold change) NADPH,[3]; metabolite NADPH,-1.0955
same,Log2(fold change) O-acetyl-L-serine,[3]; metabolite O-acetyl-L-serine,0.0000
same,Log2(fold change) Octoluse 8/1P,[3]; metabolite Octoluse 8/1P,0.0000
same,Log2(fold change) Octoluse Bisphosphate,[3]; metabolite Octoluse Bisphosphate,-0.1243
same,Log2(fold change) PD,[3]; metabolite PD,-4.6260
same,Log2(fold change) PE,[3]; metabolite PE,-5.1379
same,Log2(fold change) PEE,[3]; metabolite PEE,-4.6436
same,Log2(fold change) PEEK,[3]; metabolite PEEK,0.0000
same,Log2(fold change) PVNF,[3]; metabolite PVNF,-7.1540
same,Log2(fold change) Pyroglutamic acid,[3]; metabolite Pyroglutamic acid,0.0000
same,Log2(fold change) Pyrophosphate,[3]; metabolite Pyrophosphate,0.0000
same,Log2(fold change) Ribose-5-phosphate,[3]; metabolite Ribose-5-phosphate,-2.7334
same,Log2(fold change) S-adenosyl-L-homocysteine,[3]; metabolite S-adenosyl-L-homocysteine,-2.8781
same,Log2(fold change) S-adenosyl-L-methioninamine,[3]; metabolite S-adenosyl-L-methioninamine,0.0000
same,Log2(fold change) S-adenosyl-L-methionine,[3]; metabolite S-adenosyl-L-methionine,0.0000
same,Log2(fold change) S-methyl-5'-thioadenosine,[3]; metabolite S-methyl-5'-thioadenosine,0.0000
same,Log2(fold change) SD,[3]; metabolite SD,-2.2622
same,Log2(fold change) SDL,[3]; metabolite SDL,0.0000
same,Log2(fold change) SID,[3]; metabolite SID,-5.7557
same,Log2(fold change) Sedoheptulose bisphosphate,[3]; metabolite Sedoheptulose bisphosphate,-0.2613
same,Log2(fold change) Thiamine pyrophosphate,[3]; metabolite Thiamine pyrophosphate,0.0000
same,Log2(fold changes) UDP-D-glucose,"[3]; metabolite UDP-D-glucose, log2 fold change",-0.2797
same,Log2(fold changes) UDP-D-glucuronate,"[3]; metabolite UDP-D-glucuronate, log2 fold change",-0.6750
same,Log2(fold changes) UDP-N-acetyl-glucosamine,"[3]; metabolite UDP-N-acetyl-glucosamine, log2 fold change",-0.7739
same,Log2(fold changes) UDP,"[3]; metabolite UDP, log2 fold change",-2.1596
same,Log2(fold changes) UMP,"[3]; metabolite UMP, log2 fold change",-1.4504
same,Log2(fold changes) UTP,"[3]; metabolite UTP, log2 fold change",-1.2572
same,Log2(fold change) hydroxyphenylpyruvate,[3]; metabolite hydroxyphenylpyruvate,0.0000
same,Log2(fold change) hydroxyproline/Aminolevulinate,[3]; metabolite hydroxyproline/Aminolevulinate,-0.1426
same,Log2(fold change) hypoxanthine,[3]; metabolite hypoxanthine,0.3419
same,Log2(fold change) indole,[3]; metabolite indole,0.0000
same,Log2(fold change) inosine,[3]; metabolite inosine,-0.5164
same,Log2(fold change) isoleucine,[3]; metabolite isoleucine,0.2629
same,Log2(fold change) lactate,[3]; metabolite lactate,-0.9550
same,Log2(fold change) leucine,[3]; metabolite leucine,0.0229
same,Log2(fold change) lysine,[3]; metabolite lysine,0.0000
same,Log2(fold change) malate,[3]; metabolite malate,-1.9880
same,Log2(fold change) maleic acid,[3]; metabolite maleic acid,-2.0576
same,Log2(fold change) methionine,[3]; metabolite methionine,0.4668
same,Log2(fold change) myo-inositol,[3]; metabolite myo-inositol,0.0000
same,Log2(fold change) nicotinamide mononucleotide,[3]; metabolite nicotinamide mononucleotide,0.0000
same,Log2(fold change) nicotinate,[3]; metabolite nicotinate,-0.5789
same,Log2(fold change) ornithine,[3]; metabolite ornithine,0.0000
same,Log2(fold change) orotate,[3]; metabolite orotate,-1.4233
same,Log2(fold change) orotidine-5'-phosphate,[3]; metabolite orotidine-5'-phosphate,-3.1182
same,Log2(fold change) oxaloacetate,[3]; metabolite oxaloacetate,0.0000
same,Log2(fold change) p-aminobenzoate,[3]; metabolite p-aminobenzoate,0.0000
same,Log2(fold change) p-hydroxybenzoate,[3]; metabolite p-hydroxybenzoate,0.0000
same,Log2(fold change) pantothenate,[3]; metabolite pantothenate,-0.7783
same,Log2(fold change) phenylalanine,[3]; metabolite phenylalanine,-0.1127
same,Log2(fold change) phenylpyruvate,[3]; metabolite phenylpyruvate,0.0000
same,Log2(fold change) phosphoenolpyruvate,[3]; metabolite phosphoenolpyruvate,0.1262
same,Log2(fold change) prephenate,[3]; metabolite prephenate,0.0000
same,Log2(fold change) proline,[3]; metabolite proline,-0.3073
same,Log2(fold change) pyridoxine,[3]; metabolite pyridoxine,0.2157
same,Log2(fold change) pyruvate,[3]; metabolite pyruvate,-1.6686
same,Log2(fold change) riboflavin,[3]; metabolite riboflavin,0.0000
same,Log2(fold change) ribose,[3]; metabolite ribose,0.4922
same,Log2(fold change) ribose-phosphate,[3]; metabolite ribose-phosphate,-2.5305
same,Log2(fold change) ribulose-5-phosphate,[3]; metabolite ribulose-5-phosphate,-2.3648
same,Log2(fold change) serine,[3]; metabolite serine,-0.3911
same,Log2(fold change) sn-glycerol-3-phosphate,[3]; metabolite sn-glycerol-3-phosphate,-0.4279
same,Log2(fold change) succinate/Methylmalonic acid,[3]; metabolite succinate/Methylmalonic acid,-3.0813
same,Log2(fold change) succinyl-CoA/methylmalonyl-CoA,[3]; metabolite succinyl-CoA/methylmalonyl-CoA,-1.6128
same,Log2(fold change) taurine,[3]; metabolite taurine,0.0000
same,Log2(fold change) thiamine,[3]; metabolite thiamine,0.0000
same,Log2(fold change) threonine/homoserine,[3]; metabolite threonine/homoserine,-0.6870
same,Log2(fold change) thymidine,[3]; metabolite thymidine,0.0000
same,Log2(fold changes) thymine,"[3]; metabolite thymine, log2 fold change",0.0000
same,Log2(fold changes) trehalose-6-Phosphate,"[3]; metabolite trehalose-6-Phosphate, log2 fold change",0.0000
same,Log2(fold changes) tryptophan,"[3]; metabolite tryptophan, log2 fold change",0.1771
same,Log2(fold changes) tyrosine,"[3]; metabolite tyrosine, log2 fold change",-0.0043
same,Log2(fold changes) uridine,"[3]; metabolite uridine, log2 fold change",0.0000
